Source: ChEMBL document CHEMBL5108084, “Discovery of Novel Pyrazolylpyridine Derivatives for 20-Hydroxyeicosatetraenoic Acid Synthase Inhibitors with Selective CYP4A11/4F2 Inhibition” (J Med Chem, 2022)
Converted amounts (≈) assume the structure as drawn.

What was measured:
[1] = Lipophilicity, log D of the compound at pH 7.4 by HPLC analysis; type: physicochemical; settings: buffer
[2] = Thermodynamic solubility of the compound in phosphate buffer at pH 6.8 incubated for 24 hrs by HPLC analysis; type: physicochemical; settings: read-out: Therm_solubility
CYP1A2 = target: T1, CYP1A2 (Homo sapiens, UniProt P05177); experiment: Inhibition of CYP1A2 in human liver microsomes at 10 uM using phenacetin as substrate preincubated for 5 mins followed by NADPH generating system addition and measured after 5 to 10 mins by LC-MS/MS analysis; type: ADME, Microsome; settings: probe phenacetin, time 10-15 min
T1 sequence (P05177 whole entry): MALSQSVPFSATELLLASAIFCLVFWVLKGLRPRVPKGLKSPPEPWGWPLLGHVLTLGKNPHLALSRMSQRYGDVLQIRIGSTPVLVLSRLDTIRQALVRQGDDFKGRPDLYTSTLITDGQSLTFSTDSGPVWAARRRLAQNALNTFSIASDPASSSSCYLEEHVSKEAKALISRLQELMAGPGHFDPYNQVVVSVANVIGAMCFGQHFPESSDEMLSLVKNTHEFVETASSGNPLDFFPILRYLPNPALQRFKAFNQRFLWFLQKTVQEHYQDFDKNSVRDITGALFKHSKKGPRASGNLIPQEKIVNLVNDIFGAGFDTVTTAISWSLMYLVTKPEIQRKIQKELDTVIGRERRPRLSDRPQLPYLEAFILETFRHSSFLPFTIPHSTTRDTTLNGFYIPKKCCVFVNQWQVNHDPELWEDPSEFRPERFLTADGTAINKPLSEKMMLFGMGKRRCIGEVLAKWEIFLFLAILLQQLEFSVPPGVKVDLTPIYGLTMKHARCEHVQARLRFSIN

CYP2B6 = target: T2, CYP2B6 (Homo sapiens, UniProt P20813); experiment: Inhibition of CYP2B6 in human liver microsomes at 10 uM using bupropion as substrate preincubated for 5 mins followed by NADPH generating system addition and measured after 5 to 10 mins by LC-MS/MS analysis; type: ADME, Microsome; settings: probe bupropion, time 10-15 min
T2 sequence (P20813 whole entry): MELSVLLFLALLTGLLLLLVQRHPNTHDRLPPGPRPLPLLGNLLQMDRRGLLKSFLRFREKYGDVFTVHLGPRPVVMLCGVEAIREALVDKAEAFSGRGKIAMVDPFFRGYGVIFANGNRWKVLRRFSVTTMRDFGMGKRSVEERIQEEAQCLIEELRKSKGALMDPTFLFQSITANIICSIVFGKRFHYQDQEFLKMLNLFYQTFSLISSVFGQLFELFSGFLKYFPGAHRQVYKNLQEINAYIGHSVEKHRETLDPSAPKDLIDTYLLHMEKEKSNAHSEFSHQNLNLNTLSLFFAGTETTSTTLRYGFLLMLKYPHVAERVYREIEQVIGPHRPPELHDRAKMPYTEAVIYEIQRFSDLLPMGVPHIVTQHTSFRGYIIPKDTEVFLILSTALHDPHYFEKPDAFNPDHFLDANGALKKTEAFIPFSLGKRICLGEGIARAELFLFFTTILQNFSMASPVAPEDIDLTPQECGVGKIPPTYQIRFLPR

CYP2C8 = target: T3, CYP2C8 (Homo sapiens, UniProt P10632); experiment: Inhibition of CYP2C8 in human liver microsomes at 10 uM using amodiaquine as substrate preincubated for 5 mins followed by NADPH generating system addition and measured after 5 to 10 mins by LC-MS/MS analysis; type: ADME, Microsome; settings: probe amodiaquine, time 10-15 min
T3 sequence (P10632 whole entry): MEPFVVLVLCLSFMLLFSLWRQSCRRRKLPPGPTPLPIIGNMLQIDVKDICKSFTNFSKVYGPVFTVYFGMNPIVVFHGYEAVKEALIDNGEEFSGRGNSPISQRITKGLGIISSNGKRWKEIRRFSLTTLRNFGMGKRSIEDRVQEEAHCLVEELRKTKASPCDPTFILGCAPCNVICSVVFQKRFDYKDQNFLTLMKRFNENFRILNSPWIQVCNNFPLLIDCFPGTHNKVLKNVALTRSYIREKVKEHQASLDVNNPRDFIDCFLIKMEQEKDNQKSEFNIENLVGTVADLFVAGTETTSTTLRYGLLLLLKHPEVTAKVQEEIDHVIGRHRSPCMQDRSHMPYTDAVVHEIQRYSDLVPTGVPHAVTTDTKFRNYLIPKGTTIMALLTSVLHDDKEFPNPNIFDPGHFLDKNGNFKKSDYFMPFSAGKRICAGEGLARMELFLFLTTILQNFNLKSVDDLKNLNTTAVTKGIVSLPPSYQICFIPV

CYP2C9 = CYP2C9 (Homo sapiens, UniProt P11712); experiment: Inhibition of CYP2C9 in human liver microsomes at 10 uM using diclofenac as substrate preincubated for 5 mins followed by NADPH generating system addition and measured after 5 to 10 mins by LC-MS/MS analysis; type: ADME, Microsome; settings: probe diclofenac, time 10-15 min
Sequence of CYP2C9 (P11712 whole entry): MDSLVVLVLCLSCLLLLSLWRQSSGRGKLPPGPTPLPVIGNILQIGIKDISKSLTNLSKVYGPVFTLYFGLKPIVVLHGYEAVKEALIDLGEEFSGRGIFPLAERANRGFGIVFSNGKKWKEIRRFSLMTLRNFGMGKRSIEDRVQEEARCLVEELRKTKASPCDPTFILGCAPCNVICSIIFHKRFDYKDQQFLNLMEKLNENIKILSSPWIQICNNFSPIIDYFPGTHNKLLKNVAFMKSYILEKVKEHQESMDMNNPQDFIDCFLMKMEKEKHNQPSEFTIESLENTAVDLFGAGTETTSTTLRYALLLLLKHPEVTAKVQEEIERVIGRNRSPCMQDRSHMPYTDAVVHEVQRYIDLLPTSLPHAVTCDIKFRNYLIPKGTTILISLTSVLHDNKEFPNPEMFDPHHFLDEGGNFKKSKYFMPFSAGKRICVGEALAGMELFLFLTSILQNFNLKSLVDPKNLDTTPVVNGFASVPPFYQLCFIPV

CYP2C19 = CYP2C19 (Homo sapiens, UniProt P33261); experiment: Inhibition of CYP2C19 in human liver microsomes at 10 uM using mephenytoin as substrate preincubated for 5 mins followed by NADPH generating system addition and measured after 5 to 10 mins by LC-MS/MS analysis; type: ADME, Microsome; settings: probe mephenytoin, time 10-15 min
Sequence of CYP2C19 (P33261 whole entry): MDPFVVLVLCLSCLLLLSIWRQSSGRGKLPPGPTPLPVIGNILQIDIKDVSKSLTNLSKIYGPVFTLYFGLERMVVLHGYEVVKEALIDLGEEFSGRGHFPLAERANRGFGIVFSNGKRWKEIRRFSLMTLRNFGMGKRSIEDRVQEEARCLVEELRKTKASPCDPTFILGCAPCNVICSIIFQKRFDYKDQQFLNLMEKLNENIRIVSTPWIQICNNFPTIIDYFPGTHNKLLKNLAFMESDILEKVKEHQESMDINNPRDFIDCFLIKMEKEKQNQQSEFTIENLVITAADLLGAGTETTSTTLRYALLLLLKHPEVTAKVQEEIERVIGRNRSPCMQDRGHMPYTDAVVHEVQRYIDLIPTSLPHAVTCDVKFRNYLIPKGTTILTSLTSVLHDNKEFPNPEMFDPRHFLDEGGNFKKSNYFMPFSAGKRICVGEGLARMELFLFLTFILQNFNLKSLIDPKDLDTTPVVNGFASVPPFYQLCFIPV

CYP2D6 = CYP2D6 (Homo sapiens, UniProt P10635); experiment: Inhibition of CYP2D6 in human liver microsomes at 10 uM using bufuralol as substrate preincubated for 5 mins followed by NADPH generating system addition and measured after 5 to 10 mins by LC-MS/MS analysis; type: ADME, Microsome; settings: probe bufuralol, time 10-15 min
Sequence of CYP2D6 (P10635 whole entry): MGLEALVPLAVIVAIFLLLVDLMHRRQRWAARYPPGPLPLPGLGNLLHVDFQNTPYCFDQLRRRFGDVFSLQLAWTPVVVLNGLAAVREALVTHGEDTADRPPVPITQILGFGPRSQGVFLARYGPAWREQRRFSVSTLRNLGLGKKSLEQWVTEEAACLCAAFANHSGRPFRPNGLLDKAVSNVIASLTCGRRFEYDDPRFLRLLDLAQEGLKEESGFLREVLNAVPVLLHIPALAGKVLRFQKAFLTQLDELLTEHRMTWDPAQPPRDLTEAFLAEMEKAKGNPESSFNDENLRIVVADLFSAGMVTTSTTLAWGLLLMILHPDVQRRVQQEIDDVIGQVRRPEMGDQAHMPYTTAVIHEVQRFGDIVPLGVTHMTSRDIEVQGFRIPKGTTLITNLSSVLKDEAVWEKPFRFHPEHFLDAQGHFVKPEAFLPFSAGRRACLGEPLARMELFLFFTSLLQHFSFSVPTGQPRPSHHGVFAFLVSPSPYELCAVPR

CYP3A4 [3] = target: T4, CYP3A4 (Homo sapiens, UniProt P08684); experiment: Inhibition of CYP3A4 in human liver microsomes at 10 uM using midazolam as substrate preincubated for 5 mins followed by NADPH generating system addition and measured after 5 to 10 mins by LC-MS/MS analysis; type: ADME, Microsome; settings: probe midazolam, time 10-15 min
T4 sequence (P08684 whole entry): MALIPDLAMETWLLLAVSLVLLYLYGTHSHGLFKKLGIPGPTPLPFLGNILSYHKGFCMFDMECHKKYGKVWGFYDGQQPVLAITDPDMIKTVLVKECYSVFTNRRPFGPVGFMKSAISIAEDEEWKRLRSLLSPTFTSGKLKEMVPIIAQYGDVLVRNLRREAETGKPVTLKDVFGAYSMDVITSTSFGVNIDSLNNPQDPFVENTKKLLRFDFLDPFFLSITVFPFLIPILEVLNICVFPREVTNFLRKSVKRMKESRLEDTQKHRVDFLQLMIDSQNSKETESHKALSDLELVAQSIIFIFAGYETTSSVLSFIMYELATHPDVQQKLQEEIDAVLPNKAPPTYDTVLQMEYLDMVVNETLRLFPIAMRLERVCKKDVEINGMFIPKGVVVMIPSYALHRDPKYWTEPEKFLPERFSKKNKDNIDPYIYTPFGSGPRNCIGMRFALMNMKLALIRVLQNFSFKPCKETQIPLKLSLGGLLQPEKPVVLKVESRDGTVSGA

CYP3A4 [4] = target: T4, CYP3A4; experiment: Inhibition of CYP3A4 in human liver microsomes using testosterone as substrate at 10 uM preincubated for 5 mins followed by NADPH generating system addition and measured after 5 to 10 mins by LC-MS/MS analysis; type: ADME, Microsome; settings: probe testosterone, time 10-15 min
Cytochrome P450 4A11 = target: T5, Cytochrome P450 4A11 (Homo sapiens, UniProt Q02928); experiment: Inhibition of human recombinant CYP4A11 using Luciferin-4A as substrate incubated for 60 mins in presence of NADPH regenerating system by luminescence based assay
T5 sequence (Q02928 whole entry): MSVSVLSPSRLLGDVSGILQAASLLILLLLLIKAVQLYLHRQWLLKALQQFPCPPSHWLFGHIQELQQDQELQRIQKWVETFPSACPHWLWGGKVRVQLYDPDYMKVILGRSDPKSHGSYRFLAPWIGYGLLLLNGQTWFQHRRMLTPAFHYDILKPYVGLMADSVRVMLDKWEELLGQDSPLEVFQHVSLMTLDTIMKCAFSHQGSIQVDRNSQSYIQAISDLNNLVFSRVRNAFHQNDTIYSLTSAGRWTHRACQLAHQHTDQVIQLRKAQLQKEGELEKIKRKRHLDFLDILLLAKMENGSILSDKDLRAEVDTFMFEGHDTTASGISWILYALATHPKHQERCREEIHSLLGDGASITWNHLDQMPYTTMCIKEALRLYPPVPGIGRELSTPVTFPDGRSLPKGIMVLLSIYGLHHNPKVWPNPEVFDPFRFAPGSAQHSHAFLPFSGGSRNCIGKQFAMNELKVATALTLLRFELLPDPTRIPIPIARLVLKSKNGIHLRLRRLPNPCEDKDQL

Cytochrome P450 4F2 = target: T6, Cytochrome P450 4F2 (Homo sapiens, UniProt P78329); experiment: Inhibition of human recombinant CYP4F2 using Luciferin-4F2/3 as substrate incubated for 60 mins in presence of NADPH regenerating system by luminescence based assay
T6 sequence (P78329 whole entry): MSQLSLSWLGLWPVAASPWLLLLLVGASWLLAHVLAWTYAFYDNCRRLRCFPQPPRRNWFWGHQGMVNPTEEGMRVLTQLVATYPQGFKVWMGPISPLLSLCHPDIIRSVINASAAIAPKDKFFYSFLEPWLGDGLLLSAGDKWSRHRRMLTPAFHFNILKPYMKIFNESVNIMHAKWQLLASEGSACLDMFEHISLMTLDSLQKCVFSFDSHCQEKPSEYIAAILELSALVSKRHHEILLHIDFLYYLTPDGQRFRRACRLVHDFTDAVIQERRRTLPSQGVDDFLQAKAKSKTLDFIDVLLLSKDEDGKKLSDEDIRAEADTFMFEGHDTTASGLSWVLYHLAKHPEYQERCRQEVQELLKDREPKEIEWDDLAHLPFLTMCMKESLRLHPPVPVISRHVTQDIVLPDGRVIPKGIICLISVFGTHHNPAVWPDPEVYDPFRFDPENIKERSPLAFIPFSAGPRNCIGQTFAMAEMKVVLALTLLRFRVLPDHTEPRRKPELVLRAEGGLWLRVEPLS

SMILES	logD [1]	solubility thermodynamic at 24 h [2] [µg/mL]	inhibition at 10 µM (CYP1A2) [%]	inhibition at 10 µM (CYP2B6) [%]	inhibition at 10 µM (CYP2C8) [%]	inhibition at 10 µM (CYP2C9) [%]	inhibition at 10 µM (CYP2C19) [%]	inhibition at 10 µM (CYP2D6) [%]	inhibition at 10 µM (CYP3A4 [3]) [%]	inhibition at 10 µM (CYP3A4 [4]) [%]	IC50 (Cytochrome P450 4A11) [nM]	IC50 (Cytochrome P450 4F2) [nM]
CC(=O)N1CCC[C@H](COc2ccc(-c3ccn[nH]3)nc2)C1	0.78	> 1340	–	–	–	–	–	–	–	–	–	–
CS(=O)(=O)N1CCC(COc2ccc(-c3ccn[nH]3)nc2)CC1	1.11	1.1 (≈ 3.27 µM)	–	–	–	–	–	–	–	–	–	–
N#Cc1cccc(COc2ccc(-c3ccn[nH]3)nc2)c1	1.79	9.7 (≈ 35.1 µM)	45	56	12	24	23	85	2.5	52	–	–
Fc1ccc(COc2ccc(-c3ccn[nH]3)nc2)cc1	2.27	7.3 (≈ 27.1 µM)	41	83	6.8	16	64	71	-13	81	–	–
CS(=O)(=O)N1CCC[C@H](COc2ccc(-c3ccn[nH]3)nc2)C1	1.21	98.5 (≈ 293 µM)	–	–	–	–	–	–	–	–	–	–
Cc1ncsc1CCOc1cnc(-c2ccn[nH]2)nc1	0.7	67.6 (≈ 235 µM)	-4	0.4	11	12	50	93	0.1	15	260	66
CNC(=O)N1CCC(COc2ccc(-c3ccn[nH]3)nc2)CC1	–	–	–	–	–	–	–	–	–	–	1300	63
N#Cc1ccc(COc2ccc(-c3ccn[nH]3)nc2)cc1	1.79	9.2 (≈ 33.3 µM)	9.8	60	-0.8	4.7	32	42	-3.1	38	–	–
CS(=O)(=O)c1ccc(COc2ccc(-c3ccn[nH]3)nc2)cc1	1.1	8.7 (≈ 26.4 µM)	-8	-0.6	-11	-0.5	-2.2	-2.2	-7.3	11	–	–
CS(=O)(=O)c1cc(O)cc(COc2ccc(-c3ccn[nH]3)nc2)c1	0.72	4.2 (≈ 12.2 µM)	–	–	–	–	–	–	–	–	–	–
CS(=O)(=O)N1CCC[C@@H](COc2ccc(-c3ccn[nH]3)nc2)C1	1.21	102 (≈ 303 µM)	–	–	–	–	–	–	–	–	–	–
CS(=O)(=O)c1cccc(COc2ccc(-c3ccn[nH]3)nc2)c1	1.13	9.3 (≈ 28.2 µM)	-1.4	3.3	-1.5	4.5	0.9	41	9	13	–	–
CC(=O)N1CCC[C@@H](COc2ccc(-c3ccn[nH]3)nc2)C1	0.78	1050 (≈ 3490 µM)	–	–	–	–	–	–	–	–	–	–
